Test results taken from US11339130B1 (Blade Therapeutics, Inc., priority 2016, dated 2022).

How the values were obtained:
human calpain 9 = biological target: T1, human calpain 9 (Homo sapiens, UniProt O14815); assay: Calpain binding: crystal structure interaction distances, human calpain 9; conditions: for Interaction Distances P1-Gly95 / Interaction Distances P1-Gly189 / Interaction Distances P1-Lys188 / Interaction Distances P1-Ser242 / Interaction Distances P2-Ala255 / Interaction Distances P2-Gly190 / Interaction Distances P2-Gly253 / Interaction Distances P2-His254 / Interaction Distances P2-Phe233 / Interaction Distances P3-Gly189 / Interaction Distances P3-Gly190 / Interaction Distances P3-Ser191: non-polar interactions with human calpain 9; for Interaction Distances R^10-Gly253 / Interaction Distances R^11-Gly190 / Interaction Distances R^12-His254 / Interaction Distances R^13-Cys97 / Interaction Distances R^13-Gln91: polar interactions with human calpain 9
T1 construct: human calpain 9, residues 27-347, was over expressed in E. coli BL21 (DE3); hexa-histidine (N); made in house; host or cells: E. coli BL21 (DE3)
T1 sequence (O14815 27-347): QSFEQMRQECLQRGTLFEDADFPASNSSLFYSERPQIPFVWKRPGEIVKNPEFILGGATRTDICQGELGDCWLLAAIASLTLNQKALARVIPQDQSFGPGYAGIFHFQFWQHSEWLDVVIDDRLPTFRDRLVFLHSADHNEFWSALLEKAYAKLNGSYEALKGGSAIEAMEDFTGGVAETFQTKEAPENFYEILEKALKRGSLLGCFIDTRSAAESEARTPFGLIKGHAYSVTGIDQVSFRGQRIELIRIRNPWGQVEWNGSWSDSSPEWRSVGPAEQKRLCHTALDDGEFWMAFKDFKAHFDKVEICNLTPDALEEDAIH
Experimental: Calpain 9 Protein Preparation: N-terminally hexa-histidine-tagged human calpain 9, residues 27-347, was over expressed in E. coli BL21 (DE3) and purified via Ni-NTA and size-exclusion chromatography with yields >10 mg/liter of culture and >99% purity. The calpain 9 sequence is accession number 014815 at uniprot.org.
(§1) Calpain 9 Crystallization: A 10 mg/ml solution of rat calpain 1 or human calpain 9 (obtained as described above) was prepared in 50 mM tris (pH 8), 0.5 M NaCl, 1 mM EDTA, 1 mM CaCl2), and 1 mM beta-mercaptoethanol against MCSG1 screen condition C2 (Anatrace, Maumee, Ohio) containing 0.2 M LiSO4, 0.1 M bis-tris (pH 5.5), and 25% PEG 3350. The solution contained 2.5 mM of test compound supplemented with 20% ethylene glycol as a cryo-protectant. The bound protein was crystallized using vapor diffusion, sitting drop, at […]. The space group was P 41 21 2, with unit cell dimensions of 97.2 Å, 97.2 Å, 173.4 Å.
Calpain 9 Crystallography data collection and refinement: Data was collected at the APS synchrotron, beamline 21-ID-F at […]. Reflections were collect between 45.0-2.1 Å with completeness of 100%. Reflection data was analyzed using XDS and Xscale (Heidelberg, Germany). Structure was solved using molecular replacement and was refined with PHENIX (Berkeley, Calif.) to an R value of 0.168, Rfree=0.210.
(§2) Key interactions between test compound moieties (with reference to the variables of Formula II) and calpain 1 or calpain 9 residues were determined as set forth in Tables 4-7 below.

rat calpain 1 = biological target: T2, rat calpain 1 (Rattus norvegicus, UniProt P97571); assay: Calpain binding: crystal structure interaction distances, rat calpain 1; conditions: for Interaction Distances P1-Gly113 / Interaction Distances P1-Gly207 / Interaction Distances P1-Met260 / Interaction Distances P1-Ser206 / Interaction Distances P2-Ala273 / Interaction Distances P2-Gly208 / Interaction Distances P2-Gly271 / Interaction Distances P2-His272 / Interaction Distances P2-Ser251 / Interaction Distances P3-Gly207 / Interaction Distances P3-Gly208 / Interaction Distances P3-Ser209: non-polar interactions with rat calpain 1; for Interaction Distances R^10-Gly271 / Interaction Distances R^11-Gly208 / Interaction Distances R^12-His272 / Interaction Distances R^13-Cys115 / Interaction Distances R^13-Gln109: polar interactions with rat calpain 1
T2 construct: made in house
Experimental: as §1
Calpain 1 preparation, crystallization, and data collection: Suitable constructs for expression of rat calpain 1 had been previously established. Expression was performed according to previously established protocols. A purification protocol was established and homogeneous protein was produced in preparative amounts. The calpain 1 protein was purified comprising affinity and gel filtration chromatography steps. This procedure yielded homogenous protein with a purity greater 95% as judged from Coomassie stained SDS-PAGE. The purified protein was used in crystallization trials with test compounds employing both, a standard screen with approximately 1200 different conditions, as well as crystallization conditions identified using literature data. Conditions initially obtained were optimised using standard strategies, systematically varying parameters critically influencing crystallization, such as temperature, protein concentration, drop ratio, and others. These conditions were also refined by systematically varying pH or precipitant concentrations. Crystals were flashfrozen and measured at a temperature of 100 K. The X-ray diffraction data were collected from complex crystals ligands at a synchrotron source using cryogenic conditions. Data were processed using software programs XDS and XSCALE
as §2

T2 sequence (P97571 29-356 limits assumed): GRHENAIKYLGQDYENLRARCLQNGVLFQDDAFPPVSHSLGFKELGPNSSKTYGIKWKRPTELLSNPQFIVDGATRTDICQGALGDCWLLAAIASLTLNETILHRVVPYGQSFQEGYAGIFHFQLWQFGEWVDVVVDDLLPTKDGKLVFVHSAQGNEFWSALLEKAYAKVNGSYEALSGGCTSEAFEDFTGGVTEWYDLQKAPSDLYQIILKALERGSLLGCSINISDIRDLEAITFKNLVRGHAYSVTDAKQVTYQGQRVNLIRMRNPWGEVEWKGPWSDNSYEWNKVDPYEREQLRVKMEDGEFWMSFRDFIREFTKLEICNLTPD

Compound | Interaction Distances P1-Gly95 (human calpain 9) [Å] | Interaction Distances P1-Gly189 (human calpain 9) [Å] | Interaction Distances P1-Lys188 (human calpain 9) [Å] | Interaction Distances P1-Ser242 (human calpain 9) [Å] | Interaction Distances P2-Ala255 (human calpain 9) [Å] | Interaction Distances P2-Gly190 (human calpain 9) [Å] | Interaction Distances P2-Gly253 (human calpain 9) [Å] | Interaction Distances P2-His254 (human calpain 9) [Å] | Interaction Distances P2-Phe233 (human calpain 9) [Å] | Interaction Distances P3-Gly189 (human calpain 9) [Å] | Interaction Distances P3-Gly190 (human calpain 9) [Å] | Interaction Distances P3-Ser191 (human calpain 9) [Å] | Interaction Distances R^10-Gly253 (human calpain 9) [Å] | Interaction Distances R^11-Gly190 (human calpain 9) [Å] | Interaction Distances R^12-His254 (human calpain 9) [Å] | Interaction Distances R^13-Cys97 (human calpain 9) [Å] | Interaction Distances R^13-Gln91 (human calpain 9) [Å] | Interaction Distances P1-Gly113 (rat calpain 1) [Å] | Interaction Distances P1-Gly207 (rat calpain 1) [Å] | Interaction Distances P1-Met260 (rat calpain 1) [Å] | also measured
NC(=O)C(=O)[C@H](Cc1ccccc1)NC(=O)c1cnoc1-c1ccccc1 [Compound 60, (S)—N-(4-amino-3,4-dioxo-1-phenylbutan-2-yl)-5-phenylisoxazole-4-carboxamide] | – | – | – | – | – | – | – | – | – | – | – | – | – | – | – | – | – | 4.0 | 3.7 | 3.3 | Interaction Distances P1-Ser206 (rat calpain 1): 4.4 Å; Interaction Distances P2-Ala273 (rat calpain 1): 4.1 Å; Interaction Distances P2-Gly208 (rat calpain 1): 3.2 Å; Interaction Distances P2-Gly271 (rat calpain 1): 3.2 Å; Interaction Distances P2-His272 (rat calpain 1): 4.2 Å; Interaction Distances P2-Ser251 (rat calpain 1): 4.4 Å; Interaction Distances P3-Gly207 (rat calpain 1): 3.7 Å; Interaction Distances P3-Gly208 (rat calpain 1): 3.3 Å; Interaction Distances P3-Ser209 (rat calpain 1): 4.4 Å; Interaction Distances R^10-Gly271 (rat calpain 1): 3.21 Å; Interaction Distances R^11-Gly208 (rat calpain 1): 2.9 Å; Interaction Distances R^12-His272 (rat calpain 1): 2.9 Å; Interaction Distances R^13-Cys115 (rat calpain 1): 2.91 Å; Interaction Distances R^13-Gln109 (rat calpain 1): 2.91 Å
NC(=O)C(=O)[C@H](Cc1ccccc1)NC(=O)c1cn(C2CC2)nc1-c1ccccc1 [Compound 250, (S)—N-(4-amino-3,4-dioxo-1-phenylbutan-2-yl)-1-cyclopropyl-3-phenyl-1H-pyrazole-4-carboxamide] | – | – | – | – | – | – | – | – | – | – | – | – | – | – | – | – | – | 3.8 | 3.5 | 3.5 | Interaction Distances P1-Ser206 (rat calpain 1): 4.1 Å; Interaction Distances P2-Ala273 (rat calpain 1): 4.4 Å; Interaction Distances P2-Gly208 (rat calpain 1): 3.3 Å; Interaction Distances P2-Gly271 (rat calpain 1): 3.4 Å; Interaction Distances P2-His272 (rat calpain 1): 4.6 Å; Interaction Distances P2-Ser251 (rat calpain 1): 3.7 Å; Interaction Distances P3-Gly207 (rat calpain 1): 3.6 Å; Interaction Distances P3-Gly208 (rat calpain 1): 3.5 Å; Interaction Distances P3-Ser209 (rat calpain 1): 3.8 Å; Interaction Distances R^10-Gly271 (rat calpain 1): 3.28 Å; Interaction Distances R^11-Gly208 (rat calpain 1): 2.98 Å; Interaction Distances R^12-His272 (rat calpain 1): 2.81 Å; Interaction Distances R^13-Cys115 (rat calpain 1): 2.96 Å; Interaction Distances R^13-Gln109 (rat calpain 1): 3 Å
CCCC[C@H](NC(=O)c1oc(C)nc1-c1ccccc1)C(=O)C(N)=O [Compound 265, (S)—N-(1-amino-1,2-dioxoheptan-3-yl)-2-methyl-4-phenyloxazole-5-carboxamide] | 3.7 | 3.7 | 4.4 | 4.0 | 4.1 | 3.2 | 2.9 | 4.2 | 3.3 | 3.8 | 3.4 | 3.8 | 2.9 | 3.2 | 2.4 | 3.1 | 2.9 | – | – | – | –

Second part, led by results:

Interaction Distances P1-Gly95 (human calpain 9) [Å] | Interaction Distances P1-Gly189 (human calpain 9) [Å] | Interaction Distances P1-Lys188 (human calpain 9) [Å] | Interaction Distances P1-Ser242 (human calpain 9) [Å] | Interaction Distances P2-Ala255 (human calpain 9) [Å] | Interaction Distances P2-Gly190 (human calpain 9) [Å] | Interaction Distances P2-Gly253 (human calpain 9) [Å] | Interaction Distances P2-His254 (human calpain 9) [Å] | Interaction Distances P2-Phe233 (human calpain 9) [Å] | Interaction Distances P3-Gly189 (human calpain 9) [Å] | Interaction Distances P3-Gly190 (human calpain 9) [Å] | Interaction Distances P3-Ser191 (human calpain 9) [Å] | Interaction Distances R^10-Gly253 (human calpain 9) [Å] | Interaction Distances R^11-Gly190 (human calpain 9) [Å] | Interaction Distances R^12-His254 (human calpain 9) [Å] | Interaction Distances R^13-Cys97 (human calpain 9) [Å] | Interaction Distances R^13-Gln91 (human calpain 9) [Å] | Interaction Distances P1-Gly113 (rat calpain 1) [Å] | Interaction Distances P1-Gly207 (rat calpain 1) [Å] | Interaction Distances P1-Met260 (rat calpain 1) [Å] | Compound | also measured
4.0 | 3.5 | 3.8 | 3.6 | 4.3 | 3.3 | 3.1 | 4.2 | 3.3 | 3.7 | 3.5 | 4.4 | 3.2 | 2.9 | 2.7 | 2.9 | 2.8 | – | – | – | Cn1cc(C(=O)N[C@@H](Cc2ccccc2)C(=O)C(N)=O)c(-c2ccccc2)n1 [Compound 32, (S)—N-(4-amino-3,4-dioxo-1-phenylbutan-2-yl)-1-methyl-3-phenyl-1H-pyrazole-4-carboxamide] | –
3.6 | 3.4 | 3.7 | 3.7 | 3.9 | 3.0 | 3.4 | 4.2 | 4.4 | 4.0 | 3.3 | 4.2 | 2.9 | 3.2 | 2.5 | 3.0 | 2.8 | – | – | – | NC(=O)C(=O)[C@H](Cc1ccccc1)NC(=O)c1snnc1-c1ccccc1 [Compound 44, (S)—N-(4-amino-3,4-dioxo-1-phenylbutan-2-yl)-4-phenyl-1,2,3-thiadiazole-5-carboxamide] | –
3.9 | 3.5 | 4.0 | 3.5 | 3.6 | 3.0 | 3.2 | 3.7 | 4.1 | 3.8 | 3.3 | 4.2 | 3.2 | 2.9 | 2.6 | 2.9 | 2.8 | – | – | – | NC(=O)C(=O)[C@H](Cc1ccccc1)NC(=O)c1nsnc1-c1ccccc1 [Compound 72, (S)—N-(4-amino-3,4-dioxo-1-phenylbutan-2-yl)-4-phenyl-1,2,5-thiadiazole-3-carboxamide] | –
